From the Kinase Knowledgebase extract (Sharma et al. 2016)

Target: EGFR (UniProt P00533)
Conditions: her-14

Chain of EGFR (P00533 whole entry, looked up): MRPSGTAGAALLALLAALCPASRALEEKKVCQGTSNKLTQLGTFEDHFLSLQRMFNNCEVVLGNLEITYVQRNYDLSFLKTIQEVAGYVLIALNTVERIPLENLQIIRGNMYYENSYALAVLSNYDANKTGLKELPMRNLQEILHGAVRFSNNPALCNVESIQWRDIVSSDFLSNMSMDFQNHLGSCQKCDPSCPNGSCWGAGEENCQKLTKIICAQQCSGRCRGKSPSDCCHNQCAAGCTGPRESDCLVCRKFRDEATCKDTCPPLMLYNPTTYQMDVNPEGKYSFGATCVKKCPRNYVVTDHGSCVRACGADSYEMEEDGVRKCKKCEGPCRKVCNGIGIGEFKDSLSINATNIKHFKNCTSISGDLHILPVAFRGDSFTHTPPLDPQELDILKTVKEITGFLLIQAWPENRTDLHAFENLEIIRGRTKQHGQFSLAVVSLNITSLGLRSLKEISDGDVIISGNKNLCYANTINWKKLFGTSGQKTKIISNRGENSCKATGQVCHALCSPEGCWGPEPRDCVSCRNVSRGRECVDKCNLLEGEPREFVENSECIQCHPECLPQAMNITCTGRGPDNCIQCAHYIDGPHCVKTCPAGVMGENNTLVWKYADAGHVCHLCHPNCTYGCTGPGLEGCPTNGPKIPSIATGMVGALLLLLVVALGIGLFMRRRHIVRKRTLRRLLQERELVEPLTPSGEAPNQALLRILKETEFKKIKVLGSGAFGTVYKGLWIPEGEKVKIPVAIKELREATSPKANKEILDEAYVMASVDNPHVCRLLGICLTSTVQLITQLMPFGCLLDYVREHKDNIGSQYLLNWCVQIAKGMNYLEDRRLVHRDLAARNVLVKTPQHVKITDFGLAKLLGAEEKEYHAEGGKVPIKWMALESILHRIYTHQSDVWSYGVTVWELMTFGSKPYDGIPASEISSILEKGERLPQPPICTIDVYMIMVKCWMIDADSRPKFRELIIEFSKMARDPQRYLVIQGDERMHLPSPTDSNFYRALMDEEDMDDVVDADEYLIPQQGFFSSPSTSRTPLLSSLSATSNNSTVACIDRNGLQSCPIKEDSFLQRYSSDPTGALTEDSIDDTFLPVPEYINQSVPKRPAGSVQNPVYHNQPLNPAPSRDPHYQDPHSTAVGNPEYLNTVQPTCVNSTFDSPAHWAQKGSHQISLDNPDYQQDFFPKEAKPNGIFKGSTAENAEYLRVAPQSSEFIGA

Compound | IC50
N#C/C(=C\c1cc(O)c(O)c(O)c1)C(=O)NCCCCNC(=O)/C(C#N)=C/c1cc(O)c(O)c(O)c1 | 5 µM
COc1cc(/C=C(\C#N)C(=O)NCCCCNC(=O)/C(C#N)=C/c2cc(Br)c(O)c(OC)c2)cc(Br)c1O | 3 µM
N#C/C(=C\c1ccc(O)c(O)c1)C(=O)NCCN1CCN(C(=O)/C(C#N)=C/c2ccc(O)c(O)c2)CC1 | 6.2 µM
N#C/C(=C\c1cc(O)c(O)c([N+](=O)[O-])c1)C(=O)NCCCNC(=O)/C(C#N)=C/c1cc(O)c(O)c([N+](=O)[O-])c1 | 35 µM
N#C/C(=C\c1ccc(O)c(O)c1)C(=O)NCCCCNC(=O)/C(C#N)=C/c1ccc(O)c(O)c1 | 5 µM
N#C/C(=C\c1ccc(O)c(O)c1)S(=O)(=O)/C(C#N)=C/c1ccc(O)c(O)c1 | 2 µM
N#C/C(=C\c1cc(O)c(O)c(Br)c1)C(=O)NCCCNC(=O)/C(C#N)=C/c1cc(O)c(O)c(Br)c1 | 7.3 µM
N#C/C(=C\c1ccc(O)c(O)c1)C(=O)NC1CCCCC1NC(=O)/C(C#N)=C/c1ccc(O)c(O)c1 (centres undefined) | 4 µM
N#C/C(=C\c1ccc(O)c(O)c1)C(=O)NCC1CCCC(CNC(=O)/C(C#N)=C/c2ccc(O)c(O)c2)C1 (centres undefined) | 12.5 µM
N#C/C(=C\c1ccc(O)c(O)c1)C(=O)NCCCCCCNC(=O)/C(C#N)=C/c1ccc(O)c(O)c1 | 5 µM
N#C/C(=C\c1ccc(O)c(O)c1)C(=O)NCN1CCN(C(=O)/C(C#N)=C/c2ccc(O)c(O)c2)CC1 | 5.8 µM

Other lines, results leading:

IC50 | Compound
9 µM | N#C/C(=C\c1ccc(O)c(O)c1)C(=O)NCCCCCNC(=O)/C(C#N)=C/c1ccc(O)c(O)c1
10 µM | N#C/C(=C\c1ccc(O)c(O)c1)C(=O)NCCNC(=O)/C(C#N)=C/c1ccc(O)c(O)c1
25 µM | N#C/C(=C\c1ccc(O)c(O)c1)C(=O)NCCCCCCCCCCNC(=O)/C(C#N)=C/c1ccc(O)c(O)c1
> 80 µM | COc1cc(/C=C(\C#N)C(=O)NCCCCNC(=O)/C(C#N)=C/c2cc(OC)c(O)c([N+](=O)[O-])c2)cc([N+](=O)[O-])c1O
10 µM | N#C/C(=C\c1ccc(O)c(O)c1)C(=O)N1CCN(C(=O)/C(C#N)=C/c2ccc(O)c(O)c2)CC1
7 µM | N#C/C(=C\c1ccc(O)c(O)c1)C(=O)NCCCN1CCN(CCCNC(=O)/C(C#N)=C/c2ccc(O)c(O)c2)CC1
20.3 µM | N#C/C(=C\c1ccc(O)c(O)c1)C(=O)NC1CCC(CC2CCC(NC(=O)/C(C#N)=C/c3ccc(O)c(O)c3)CC2)CC1 (centres undefined)
6 µM | N#C/C(=C\c1ccc(O)c(O)c1)C(=O)NCc1cccc(CNC(=O)/C(C#N)=C/c2ccc(O)c(O)c2)c1
